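Five compound concentrations were applied to cells in 96-well plates for 48 hours; endpoints were derived by simple linear interpolation of the resulting dose-response curve. GI50 is the concentration that inhibits growth by half. The concentration for full growth arrest is given as TGI.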
Legend:
Test in all cases: inhibition of tumour cell growth, NCI panel, 48 h
SNB-19 CNS = test system: SNB-19 CNS
HCT-15 colon = test system: HCT-15 colon
NCI-H226 lung = test system: NCI-H226 lung
NCI-H23 lung = test system: NCI-H23 lung
SN12C renal = test system: SN12C renal
SNB-75 CNS = test system: SNB-75 CNS
PC-3 prostate = test system: PC-3 prostate
SW-620 colon = test system: SW-620 colon
HCT-116 colon = test system: HCT-116 colon
SK-MEL-2 melanoma = test system: SK-MEL-2 melanoma

SMILES | GI50 (SNB-19 CNS) | TGI (SNB-19 CNS) | GI50 (HCT-15 colon) | TGI (HCT-15 colon) | GI50 (NCI-H226 lung) | TGI (NCI-H226 lung) | GI50 (NCI-H23 lung) | TGI (NCI-H23 lung) | GI50 (SN12C renal) | TGI (SN12C renal) | GI50 (SNB-75 CNS) | TGI (SNB-75 CNS) | GI50 (PC-3 prostate) | TGI (PC-3 prostate) | GI50 (SW-620 colon) | TGI (SW-620 colon) | GI50 (HCT-116 colon) | TGI (HCT-116 colon) | GI50 (SK-MEL-2 melanoma) | TGI (SK-MEL-2 melanoma)
Nc1nc(-c2ccccn2)c(-c2ccc3ncccc3n2)s1 | > 25 µM | > 25 µM | > 25 µM | > 25 µM | > 25 µM | > 25 µM | > 25 µM | > 25 µM | > 25 µM | > 25 µM | > 25 µM | > 25 µM | > 25 µM | > 25 µM | > 25 µM | > 25 µM | > 25 µM | > 25 µM | > 25 µM | > 25 µM
CCc1ccc2cc3c(ccc4ccccc43)c3c2c1CC3 | > 100 µM | > 100 µM | > 100 µM | > 100 µM | > 100 µM | > 100 µM | > 100 µM | > 100 µM | > 100 µM | > 100 µM | > 100 µM | > 100 µM | > 100 µM | > 100 µM | > 100 µM | > 100 µM | > 100 µM | > 100 µM | > 100 µM | > 100 µM
FC(F)(F)c1ccc(-c2cnc(-c3nn[nH]n3)nc2NC2CCCCCC2)cc1 | > 10 µM | > 10 µM | > 10 µM | > 10 µM | > 10 µM | > 10 µM | > 10 µM | > 10 µM | > 10 µM | > 10 µM | > 10 µM | > 10 µM | > 10 µM | > 10 µM | > 10 µM | > 10 µM | > 10 µM | > 10 µM | > 10 µM | > 10 µM
CCCCCCCCCCCCNC(=O)N[C@H](C(=O)N[C@H]1/C=C/OCCNC(=O)/C=C/[C@H](C(C)C)NC1=O)C(C)C | 4.3 µM | > 100 µM | > 66.3 µM | > 100 µM | 4.53 µM | > 19.7 µM | 0.973 µM | > 100 µM | 23.6 µM | > 100 µM | 4.31 µM | > 100 µM | 0.682 µM | > 100 µM | – | – | 1.67 µM | 21.7 µM | 4 µM | > 59.2 µM
CN(C)c1ccc(-c2cc(-c3cccc(NS(C)(=O)=O)c3)nc(N)c2C#N)cc1 | 0.0526 µM | > 48.9 µM | 0.0362 µM | 11.8 µM | 0.045 µM | 17.6 µM | 0.0457 µM | 20.5 µM | 0.0537 µM | 20.7 µM | 0.0272 µM | 3.22 µM | 0.0327 µM | 13.3 µM | 0.0411 µM | 18.6 µM | 0.0404 µM | 2.19 µM | 0.0449 µM | 21.8 µM
C=C(CN1CCc2ccccc2C1)c1ccc(C(=O)Nc2cccc(N)c2)cc1 | 35.9 µM | > 100 µM | 27.4 µM | 69.8 µM | 22.3 µM | 50.8 µM | 19.8 µM | 62.3 µM | 18.8 µM | 36.5 µM | 15.6 µM | 43 µM | 21.9 µM | > 100 µM | 23 µM | 52.1 µM | 16 µM | 33.5 µM | 23.7 µM | 48.4 µM
CN1CC[C@H](N(C)C(=O)N2CC(c3cc(F)ccc3F)=C[C@@]2(CO)c2ccccc2)[C@H](F)C1 | 0.0259 µM | > 100 µM | 0.00418 µM | > 100 µM | 40.4 µM | > 100 µM | 0.0371 µM | > 100 µM | 0.0631 µM | > 100 µM | 0.0402 µM | 34.9 µM | 0.0409 µM | > 100 µM | 0.00854 µM | > 100 µM | 0.00335 µM | > 100 µM | 0.0282 µM | 79.4 µM
COc1ccc(-c2cc(-c3ccc(Cl)cc3)c(C#N)c(=O)n2CCCCCC(=O)Nc2ccccc2N)cc1 | 23.1 µM | > 100 µM | 2.78 µM | 10.4 µM | 4.58 µM | 78.9 µM | 6.04 µM | 27.3 µM | 7.66 µM | > 100 µM | 1.4 µM | 5.83 µM | 3.05 µM | 31 µM | 3.87 µM | > 100 µM | 3.8 µM | > 100 µM | 4.68 µM | 33.1 µM
COc1cc2nc(NC3CCC3)nc(NC3CCN(C(C)C)CC3)c2cc1OC | – | – | 2.16 µM | 5.15 µM | 6 µM | 21.8 µM | 4.61 µM | 17.7 µM | 3.92 µM | 16.1 µM | 1.41 µM | 4.4 µM | 3.51 µM | 20.7 µM | 2.49 µM | 7.02 µM | 1.78 µM | 4.39 µM | 1.9 µM | 3.79 µM
CCN(CC)c1ccc(C=C2C(=O)NC(=S)NC2=O)cc1 | 3.55 µM | 13.8 µM | 3.24 µM | 9.22 µM | 3.24 µM | 10.2 µM | 2.98 µM | 9.72 µM | 7.24 µM | 23.1 µM | 2.66 µM | 8.75 µM | 2.75 µM | 7.96 µM | 1.91 µM | 4.32 µM | 3.34 µM | 8.98 µM | 2.73 µM | 7.05 µM
CCOc1ccc(-c2nc3ccc(-c4nc5ccc(N6CCN(C)CC6)cc5[nH]4)cc3[nH]2)cc1OCC | 2 µM | 11.1 µM | 15 µM | > 100 µM | 1.17 µM | 4.8 µM | 1.52 µM | 4.45 µM | 1.94 µM | 10.9 µM | 1.03 µM | 2.56 µM | 1.42 µM | 10.4 µM | 0.796 µM | 2.89 µM | 0.529 µM | 2.72 µM | 1.49 µM | 3.27 µM
O=C(/C=C/c1c[nH]c2ccccc12)c1ccccc1O | – | 36.7 µM | – | 21.7 µM | – | 42.8 µM | – | – | – | 28.8 µM | – | 27.2 µM | – | 18.7 µM | – | 59.7 µM | – | 26 µM | – | 18.6 µM

Reference: PubChem BioAssay (NCI)
